Measured values as given in patent publication US10626144B2, “Peptide derivatives and uses thereof” (Nosopharm, priority 2014, dated 2020).
Square brackets hold non-standard residues; d marks the D form. Peptide text beside a SMILES is read from it. Phe(3,4-(OMe)2) = COc1ccc(C[C@H](N)C(=O)O)cc1OC; Phe(3-CONH2) = NC(=O)c1cccc(C[C@H](N)C(=O)O)c1; Phe(3-F) = N[C@@H](Cc1cccc(F)c1)C(=O)O; Phe(3-Me) = Cc1cccc(C[C@H](N)C(=O)O)c1; Dab(3S-OH) = NC[C@H](O)[C@H](N)C(=O)O; Phe(2-F) = N[C@@H](Cc1ccccc1F)C(=O)O; ΔZArg = N=C(N)NCC/C=C(\N)C(=O)O; dOrn = NCCC[C@@H](N)C(=O)O; Dab = NCC[C@H](N)C(=O)O

Experiments:
Experiment in all cases: MIC, broth microdilution (CLSI), reference strain
Conditions in all cases: CAMHB
[1] = test system: Escherichia coli ATCC 25922
[2] = test system: Acinetobacter baumannii ATCC 19606
[3] = test system: Pseudomonas aeruginosa ATCC 27853
[4] = test system: Staphylococcus aureus ATCC 13709

N=C(N)NCC/C=C(\NC(=O)[C@H](CCCCN)NC(=O)[C@H](Cc1cnc[nH]1)NC(=O)[C@@H]1CCCN1C(=O)[C@@H](CCCN)NC(=O)CNC(=O)[C@H](CCN)NC(=O)[C@@H](NC(=O)[C@@H](N)CCCCN)[C@@H](O)CN)C(=O)O [21.2] (H-K[Dab(3S-OH)][Dab]G[dOrn]PHK[ΔZArg]-OH)
Ec: MIC Escherichia coli ATCC 25922 [1]: ++ (≤8 μg/mL) | Ab: MIC Acinetobacter baumannii ATCC 19606 [2]: − (>32 μg/mL) | Pa: MIC Pseudomonas aeruginosa ATCC 27853 [3]: − (>32 μg/mL) | Sa: MIC Staphylococcus aureus ATCC 13709 [4]: ++ (≤8 μg/mL)

CC(=O)NCC[C@H](NC(=O)[C@@H](NC(=O)[C@@H](N)CCCCN)[C@@H](O)CN)C(=O)NCC(=O)N[C@H](CCCN)C(=O)N1CCC[C@H]1C(=O)N[C@@H](Cc1cnc[nH]1)C(=O)N[C@@H](CCCCN)C(=O)N/C(=C\CCNC(=N)N)C(N)=O [21.3] (H-K[Dab(3S-OH)][Dab](Ac)G[dOrn]PHK[ΔZArg]-NH2)
Ec: MIC Escherichia coli ATCC 25922 [1]: − (>32 μg/mL) | Ab: MIC Acinetobacter baumannii ATCC 19606 [2]: − (>32 μg/mL) | Pa: MIC Pseudomonas aeruginosa ATCC 27853 [3]: − (>32 μg/mL) | Sa: MIC Staphylococcus aureus ATCC 13709 [4]: ++ (≤8 μg/mL)

N=C(N)NCC/C=C(\NC(=O)[C@H](CCCCN)NC(=O)[C@H](Cc1ccccc1F)NC(=O)[C@@H]1CCCN1C(=O)[C@@H](CCCN)NC(=O)CNC(=O)[C@H](CCN)NC(=O)[C@@H](NC(=O)[C@@H](N)CCCCN)[C@@H](O)CN)C(=O)O [21.4] (H-K[Dab(3S-OH)][Dab]G[dOrn]P[Phe(2-F)]K[ΔZArg]-OH)
Ec: MIC Escherichia coli ATCC 25922 [1]: ++ (≤8 μg/mL) | Ab: MIC Acinetobacter baumannii ATCC 19606 [2]: − (>32 μg/mL) | Pa: MIC Pseudomonas aeruginosa ATCC 27853 [3]: − (>32 μg/mL) | Sa: MIC Staphylococcus aureus ATCC 13709 [4]: ++ (≤8 μg/mL)

COc1ccc(C[C@H](NC(=O)[C@@H]2CCCN2C(=O)[C@@H](CCCN)NC(=O)CNC(=O)[C@H](CCN)NC(=O)[C@@H](NC(=O)[C@@H](N)CCCCN)[C@@H](O)CN)C(=O)N[C@@H](CCCCN)C(=O)N/C(=C\CCNC(=N)N)C(=O)O)cc1OC [21.5] (H-K[Dab(3S-OH)][Dab]G[dOrn]P[Phe(3,4-(OMe)2)]K[ΔZArg]-OH)
Ec: MIC Escherichia coli ATCC 25922 [1]: ++ (≤8 μg/mL) | Ab: MIC Acinetobacter baumannii ATCC 19606 [2]: − (>32 μg/mL) | Pa: MIC Pseudomonas aeruginosa ATCC 27853 [3]: − (>32 μg/mL) | Sa: MIC Staphylococcus aureus ATCC 13709 [4]: ++ (≤8 μg/mL)

N=C(N)NCC/C=C(\NC(=O)[C@H](CCCCN)NC(=O)[C@H](Cc1cccc(C(N)=O)c1)NC(=O)[C@@H]1CCCN1C(=O)[C@@H](CCCN)NC(=O)CNC(=O)[C@H](CCN)NC(=O)[C@@H](NC(=O)[C@@H](N)CCCCN)[C@@H](O)CN)C(=O)O [21.6] (H-K[Dab(3S-OH)][Dab]G[dOrn]P[Phe(3-CONH2)]K[ΔZArg]-OH)
Ec: MIC Escherichia coli ATCC 25922 [1]: ++ (≤8 μg/mL) | Ab: MIC Acinetobacter baumannii ATCC 19606 [2]: − (>32 μg/mL) | Pa: MIC Pseudomonas aeruginosa ATCC 27853 [3]: − (>32 μg/mL) | Sa: MIC Staphylococcus aureus ATCC 13709 [4]: ++ (≤8 μg/mL)

N=C(N)NCC/C=C(\NC(=O)[C@H](CCCCN)NC(=O)[C@H](Cc1cccc(F)c1)NC(=O)[C@@H]1CCCN1C(=O)[C@@H](CCCN)NC(=O)CNC(=O)[C@H](CCN)NC(=O)[C@@H](NC(=O)[C@@H](N)CCCCN)[C@@H](O)CN)C(=O)O [21.7] (H-K[Dab(3S-OH)][Dab]G[dOrn]P[Phe(3-F)]K[ΔZArg]-OH)
Ec: MIC Escherichia coli ATCC 25922 [1]: ++ (≤8 μg/mL) | Ab: MIC Acinetobacter baumannii ATCC 19606 [2]: − (>32 μg/mL) | Pa: MIC Pseudomonas aeruginosa ATCC 27853 [3]: − (>32 μg/mL) | Sa: MIC Staphylococcus aureus ATCC 13709 [4]: ++ (≤8 μg/mL)

Cc1cccc(C[C@H](NC(=O)[C@@H]2CCCN2C(=O)[C@@H](CCCN)NC(=O)CNC(=O)[C@H](CCN)NC(=O)[C@@H](NC(=O)[C@@H](N)CCCCN)[C@@H](O)CN)C(=O)N[C@@H](CCCCN)C(=O)N/C(=C\CCNC(=N)N)C(=O)O)c1 [21.8] (H-K[Dab(3S-OH)][Dab]G[dOrn]P[Phe(3-Me)]K[ΔZArg]-OH)
Ec: MIC Escherichia coli ATCC 25922 [1]: ++ (≤8 μg/mL) | Ab: MIC Acinetobacter baumannii ATCC 19606 [2]: − (>32 μg/mL) | Pa: MIC Pseudomonas aeruginosa ATCC 27853 [3]: − (>32 μg/mL) | Sa: MIC Staphylococcus aureus ATCC 13709 [4]: ++ (≤8 μg/mL)
